Blank lines part the entries; values can stand above or below the compound they belong to.
How the values were obtained:
[1] = system: human prostate PC3-mm2 tumor cell line; experiment: In vitro cell culture growth assay (MTS), PC3-mm2; format: cell-based; details: PC3MM2, 72 h, human prostate PC3-mm2 cells, three days after drug treatment
[2] = system: human breast MDA-MB-361 tumor cell line; experiment: In vitro cell culture growth assay (MTS), MDA-MB-361; format: cell-based; details: 72 h, human breast MDA-MB-361 cells, three days after drug treatment
[3] = system: human tumor xenograft models; details: chronic oral administration, 400 mg/kg; A549, PC-3, WiDr; cited from earlier work
[4] = target: human SMG-1 (hSMG-1) (Homo sapiens, UniProt Q96Q15); experiment: hSMG-1 kinase assay (DELFIA); format: biochemical
[5] = system: acute lymphoblastic leukemia xenograft; details: NOS/SCID mouse; cited from earlier work
[6] = target: PI3K-gamma (Homo sapiens, UniProt P48736); experiment: PI3K-gamma fluorescence polarization assay; details: read-out: IC50 PI3Kγ
[7] = target: PI3K-alpha (Homo sapiens, UniProt P42336); experiment: PI3K-alpha fluorescence polarization assay; details: read-out: IC50 PI3Kα
[8] = system: human prostate LNCap tumor cell line; experiment: In vitro cell culture growth assay (MTS), LNCap; details: 72 h, read-out: IC50 LNCap

Sequence of PI3K-gamma (P48736 whole entry, species assumed): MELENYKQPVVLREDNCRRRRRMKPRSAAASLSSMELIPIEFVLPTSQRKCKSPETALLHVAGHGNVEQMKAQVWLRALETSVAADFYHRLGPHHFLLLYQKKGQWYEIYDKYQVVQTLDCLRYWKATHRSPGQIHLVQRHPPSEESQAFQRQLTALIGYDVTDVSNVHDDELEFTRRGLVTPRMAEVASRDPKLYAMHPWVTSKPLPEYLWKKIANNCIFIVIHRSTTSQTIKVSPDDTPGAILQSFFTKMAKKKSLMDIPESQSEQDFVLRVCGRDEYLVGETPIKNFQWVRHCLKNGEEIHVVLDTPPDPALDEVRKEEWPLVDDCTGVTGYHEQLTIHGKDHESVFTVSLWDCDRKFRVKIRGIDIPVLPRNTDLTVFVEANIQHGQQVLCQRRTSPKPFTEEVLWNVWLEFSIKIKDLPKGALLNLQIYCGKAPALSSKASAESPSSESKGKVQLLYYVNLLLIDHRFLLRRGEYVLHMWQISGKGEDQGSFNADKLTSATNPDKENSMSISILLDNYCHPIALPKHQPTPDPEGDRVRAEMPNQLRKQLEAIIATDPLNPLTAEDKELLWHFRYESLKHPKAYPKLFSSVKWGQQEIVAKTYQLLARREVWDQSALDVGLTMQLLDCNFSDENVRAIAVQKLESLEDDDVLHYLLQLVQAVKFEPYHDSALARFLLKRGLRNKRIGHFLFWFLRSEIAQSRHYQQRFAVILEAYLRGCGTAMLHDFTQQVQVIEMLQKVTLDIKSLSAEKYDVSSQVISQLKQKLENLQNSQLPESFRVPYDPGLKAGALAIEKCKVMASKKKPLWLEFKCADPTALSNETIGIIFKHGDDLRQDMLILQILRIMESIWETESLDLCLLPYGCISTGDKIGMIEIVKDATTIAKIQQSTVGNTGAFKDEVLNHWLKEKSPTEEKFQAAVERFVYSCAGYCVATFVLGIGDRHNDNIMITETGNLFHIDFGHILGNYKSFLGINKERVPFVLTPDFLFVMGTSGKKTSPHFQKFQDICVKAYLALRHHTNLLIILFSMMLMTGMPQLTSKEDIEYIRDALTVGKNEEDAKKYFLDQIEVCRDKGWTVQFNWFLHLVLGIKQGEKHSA
Sequence of human SMG-1 (hSMG-1) (Q96Q15 whole entry): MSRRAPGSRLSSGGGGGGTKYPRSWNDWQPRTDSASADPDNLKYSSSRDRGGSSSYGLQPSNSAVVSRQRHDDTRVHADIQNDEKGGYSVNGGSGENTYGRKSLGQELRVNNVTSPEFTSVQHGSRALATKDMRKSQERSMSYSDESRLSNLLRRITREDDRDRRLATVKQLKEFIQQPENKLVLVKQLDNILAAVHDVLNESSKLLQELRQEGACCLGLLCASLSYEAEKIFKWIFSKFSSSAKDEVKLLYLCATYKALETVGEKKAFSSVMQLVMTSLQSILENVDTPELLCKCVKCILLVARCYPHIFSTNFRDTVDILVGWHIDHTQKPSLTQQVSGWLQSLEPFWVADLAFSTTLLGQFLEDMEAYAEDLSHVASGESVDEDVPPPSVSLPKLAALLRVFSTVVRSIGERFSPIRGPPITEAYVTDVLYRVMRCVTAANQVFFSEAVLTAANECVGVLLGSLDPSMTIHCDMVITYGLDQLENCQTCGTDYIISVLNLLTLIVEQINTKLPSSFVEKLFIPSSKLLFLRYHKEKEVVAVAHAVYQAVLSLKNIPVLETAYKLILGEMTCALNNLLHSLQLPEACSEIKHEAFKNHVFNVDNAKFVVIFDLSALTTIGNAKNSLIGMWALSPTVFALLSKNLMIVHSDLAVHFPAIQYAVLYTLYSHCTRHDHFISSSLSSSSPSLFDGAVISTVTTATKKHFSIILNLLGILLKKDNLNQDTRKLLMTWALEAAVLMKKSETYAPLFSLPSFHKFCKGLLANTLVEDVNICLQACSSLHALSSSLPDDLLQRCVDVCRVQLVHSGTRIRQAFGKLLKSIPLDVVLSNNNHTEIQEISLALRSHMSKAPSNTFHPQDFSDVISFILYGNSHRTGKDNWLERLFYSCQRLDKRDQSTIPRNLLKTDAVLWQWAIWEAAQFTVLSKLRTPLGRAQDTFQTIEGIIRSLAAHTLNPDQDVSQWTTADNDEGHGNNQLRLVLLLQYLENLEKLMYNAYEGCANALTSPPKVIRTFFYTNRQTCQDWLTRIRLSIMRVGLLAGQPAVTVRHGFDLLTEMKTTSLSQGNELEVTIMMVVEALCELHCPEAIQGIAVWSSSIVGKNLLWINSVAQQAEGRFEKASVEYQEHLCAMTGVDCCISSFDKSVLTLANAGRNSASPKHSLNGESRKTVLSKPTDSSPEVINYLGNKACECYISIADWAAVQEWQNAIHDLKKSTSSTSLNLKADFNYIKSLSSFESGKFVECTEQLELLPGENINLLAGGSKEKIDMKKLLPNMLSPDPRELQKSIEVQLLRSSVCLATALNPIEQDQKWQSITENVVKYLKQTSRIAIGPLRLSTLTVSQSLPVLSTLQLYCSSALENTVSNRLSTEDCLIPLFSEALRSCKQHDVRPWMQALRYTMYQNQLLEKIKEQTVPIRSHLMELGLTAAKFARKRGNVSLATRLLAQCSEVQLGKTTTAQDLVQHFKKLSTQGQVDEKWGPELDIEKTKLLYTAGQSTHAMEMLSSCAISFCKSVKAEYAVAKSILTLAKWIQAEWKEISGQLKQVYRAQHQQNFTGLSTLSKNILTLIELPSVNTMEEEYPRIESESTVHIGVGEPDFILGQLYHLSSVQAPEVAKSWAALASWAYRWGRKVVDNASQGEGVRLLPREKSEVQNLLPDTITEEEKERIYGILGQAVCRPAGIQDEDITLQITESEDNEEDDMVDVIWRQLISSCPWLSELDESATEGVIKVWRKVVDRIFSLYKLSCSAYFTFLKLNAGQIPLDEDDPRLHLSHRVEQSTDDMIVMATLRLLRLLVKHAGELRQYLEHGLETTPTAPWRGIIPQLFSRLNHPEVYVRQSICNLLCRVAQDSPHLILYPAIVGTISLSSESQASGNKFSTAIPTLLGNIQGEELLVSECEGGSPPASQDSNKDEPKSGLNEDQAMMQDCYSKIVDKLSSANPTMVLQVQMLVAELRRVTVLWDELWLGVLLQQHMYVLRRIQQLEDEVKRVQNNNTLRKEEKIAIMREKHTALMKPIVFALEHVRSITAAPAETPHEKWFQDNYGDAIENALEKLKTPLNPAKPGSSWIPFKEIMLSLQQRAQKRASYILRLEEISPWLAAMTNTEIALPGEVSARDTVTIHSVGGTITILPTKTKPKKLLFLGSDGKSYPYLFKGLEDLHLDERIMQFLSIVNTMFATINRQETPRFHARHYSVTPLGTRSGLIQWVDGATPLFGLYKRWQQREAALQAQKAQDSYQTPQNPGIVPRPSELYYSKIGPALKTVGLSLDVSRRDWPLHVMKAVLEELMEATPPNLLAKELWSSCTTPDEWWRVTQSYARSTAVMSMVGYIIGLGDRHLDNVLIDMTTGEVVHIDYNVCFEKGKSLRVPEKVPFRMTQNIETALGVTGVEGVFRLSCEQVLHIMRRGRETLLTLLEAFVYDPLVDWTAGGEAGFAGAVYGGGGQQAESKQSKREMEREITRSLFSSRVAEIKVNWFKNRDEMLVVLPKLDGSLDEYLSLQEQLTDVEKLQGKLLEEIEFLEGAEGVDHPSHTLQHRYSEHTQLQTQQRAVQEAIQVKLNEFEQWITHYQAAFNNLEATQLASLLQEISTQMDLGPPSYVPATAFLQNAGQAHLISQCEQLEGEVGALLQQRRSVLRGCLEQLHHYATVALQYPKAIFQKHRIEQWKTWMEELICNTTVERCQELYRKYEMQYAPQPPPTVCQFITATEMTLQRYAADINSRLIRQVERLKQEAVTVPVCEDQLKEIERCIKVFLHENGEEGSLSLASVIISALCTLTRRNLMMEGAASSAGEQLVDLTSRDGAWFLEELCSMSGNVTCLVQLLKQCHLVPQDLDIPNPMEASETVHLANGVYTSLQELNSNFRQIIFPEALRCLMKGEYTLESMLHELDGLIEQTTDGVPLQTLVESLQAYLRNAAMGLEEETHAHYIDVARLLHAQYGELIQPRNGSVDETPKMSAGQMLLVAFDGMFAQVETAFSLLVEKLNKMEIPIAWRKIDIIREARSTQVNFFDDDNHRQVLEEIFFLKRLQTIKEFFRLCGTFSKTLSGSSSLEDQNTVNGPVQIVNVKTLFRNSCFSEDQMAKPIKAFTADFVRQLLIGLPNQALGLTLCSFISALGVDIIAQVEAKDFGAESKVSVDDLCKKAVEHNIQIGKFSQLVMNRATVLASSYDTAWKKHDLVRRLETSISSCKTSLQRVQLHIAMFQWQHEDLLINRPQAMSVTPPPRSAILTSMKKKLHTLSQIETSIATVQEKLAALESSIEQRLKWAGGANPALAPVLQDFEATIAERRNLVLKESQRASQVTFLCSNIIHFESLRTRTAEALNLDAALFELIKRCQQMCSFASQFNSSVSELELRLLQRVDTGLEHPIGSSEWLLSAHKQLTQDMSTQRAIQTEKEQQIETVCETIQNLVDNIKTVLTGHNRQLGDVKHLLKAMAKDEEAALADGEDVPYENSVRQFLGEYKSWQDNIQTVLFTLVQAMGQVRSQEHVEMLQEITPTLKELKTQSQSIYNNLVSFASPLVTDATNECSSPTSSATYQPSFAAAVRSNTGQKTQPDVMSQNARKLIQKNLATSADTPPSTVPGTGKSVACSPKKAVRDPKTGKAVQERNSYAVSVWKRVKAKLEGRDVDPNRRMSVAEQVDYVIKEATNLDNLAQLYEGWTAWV

IC50 [1]: 155 nM
IC50 [2]: 22 nM
Compound: CN(C)CCNC(=O)c1ccc(NC(=O)Nc2ccc(-c3nc(N4CCCCC4)nc(N4CCOCC4)n3)cc2)cc1 [Example 601, N-[2-(dimethylamino)ethyl]-4-({[4-(4-morpholin-4-yl-6-piperidin-1-yl-1,3,5-triazin-2-yl)phenyl]carbamoyl}amino)benzamide]

IC50 [6]: 134 nM
IC50 [7]: 5 nM
Compound: CC(C)N1CCCN(c2nc(-c3ccc(NC(=O)Nc4ccc(C(=O)N(C)CCN(C)C)cc4)cc3)nc(N3CCOCC3)n2)CC1 [Example 858, N-[2-(dimethylamino)ethyl]-N-methyl-4-{[(4-{4-(morpholin-4-yl)-6-[4-(propan-2-yl)-1,4-diazepan-1-yl]-1,3,5-triazin-2-yl}phenyl)carbamoyl]amino}benzamide]

The remaining lines, values behind:

Compound: FC(F)c1nc2ccccc2n1-c1nc(N2CCOCC2)nc(N2CCOCC2)n1 [ZSTK474, 2-(2-difluoromethylbenzoimidazol-1-yl)-4,6-dimorpholino-1,3,5-triazine]
tumor growth inhibition in mouse human xenograft cancer models [3]: completely inhibited growth

Compound: CNC(=O)Nc1ccc(-c2nc(-c3ccc(NC(=O)Nc4ccc(C(N)=O)cc4)cc3)nc(N3CCOCC3)n2)cc1 [Example 462, 4-({[4-(4-{4-[(methylcarbamoyl)amino]phenyl}-6-morpholin-4-yl-1,3,5-triazin-2-yl)phenyl]carbamoyl}amino)benzamide]
IC50 [4]: 1 nM

Compound: CO[C@H]1C[C@@H]2CC[C@@H](C)[C@@](O)(O2)C(=O)C(=O)N2CCCC[C@H]2C(=O)O[C@H]([C@H](C)C[C@@H]2CC[C@@H](OC(=O)C(C)(CO)CO)[C@H](OC)C2)CC(=O)[C@H](C)/C=C(\C)[C@@H](O)[C@@H](OC)C(=O)[C@H](C)C[C@H](C)/C=C/C=C/C=C/1C [Torisel]
activity in xenograft mouse model of acute lymphoblastic leukemia [5]: active

Compound: CNC(=O)Nc1ccc(-c2nc(-c3ccc(NC(=O)Nc4cccc(C(N)=O)c4)cc3)nc(N3CCOCC3)n2)cc1 [Example 466, 3-({[4-(4-{4-[(methylcarbamoyl)amino]phenyl}-6-morpholin-4-yl-1,3,5-triazin-2-yl)phenyl]carbamoyl}amino)benzamide]
IC50 [8]: 420 nM

From patent US8748421B2, “Triazine compounds as P13 kinase and MTOR inhibitors” (Wyeth LLC, priority 2009, dated 2014)
